Where two headings read alike, the source gives them in different places.
Assays:
[1] = test system: human breast, ovarian and liver cancer; settings: clinical trials; cited from earlier work
[2] = particularly in relation to the liver and kidney; cited from earlier work
[3] = target: T1, thymidylate synthase (Mus musculus, UniProt P07607); experiment: Test (a): in vitro inhibition of the enzyme thymidylate synthase (partially purified from L1210 mouse leukaemia cells); format: biochemical
T1 construct: obtained in partially purified form from L1210 mouse leukaemia cells; endogenous in cells; host or cells: L1210 mouse leukaemia cells (enzyme partially purified)
T1 sequence (P07607 whole entry): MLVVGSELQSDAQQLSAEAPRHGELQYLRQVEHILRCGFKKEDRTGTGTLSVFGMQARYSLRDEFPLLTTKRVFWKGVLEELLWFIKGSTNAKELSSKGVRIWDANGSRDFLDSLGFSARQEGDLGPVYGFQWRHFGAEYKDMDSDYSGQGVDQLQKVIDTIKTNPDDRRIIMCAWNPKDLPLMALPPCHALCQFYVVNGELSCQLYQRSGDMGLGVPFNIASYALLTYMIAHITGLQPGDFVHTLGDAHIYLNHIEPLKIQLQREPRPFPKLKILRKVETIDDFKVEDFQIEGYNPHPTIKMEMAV
Source text: (a) An in vitro assay which determines the ability of a test compound to inhibit the enzyme thymidylate synthase.

[4] = test system: L1210; experiment: Test (b): inhibition of the growth of the leukaemia cell line L1210 in cell culture; format: cell-based; settings: Mus musculus, read-out: IC50 against the L1210 cell line [Test (b)]
Source text: (b) An assay which determines the ability of a test compound to inhibit the growth of the leukaemia cell line L1210 in cell culture. The test is similar to that described in UK Patent Specification No. 2065653B;

SMILES	activity against human breast, ovarian and liver cancer [1]	symptoms of toxicity in humans [2]	IC50 [3] [µM]	IC50 [4] [µM]	IC50 ([3]; enzyme from L1210 mouse leukaemia cells, read-out: IC50 against thymidylate synthase [Test (a)]) [µM]
C#CCN(Cc1ccc2nc(N)[nH]c(=O)c2c1)c1ccc(C(=O)N[C@@H](CCC(=O)O)C(=O)O)cc1 [CB3717]	promising activity against human breast, ovarian and liver cancer	shows symptoms of toxicity in humans, particularly in relation to the liver and kidney			
C#CCN(Cc1ccc2nc(C)[nH]c(=O)c2c1)c1ccc(C(=O)NCc2ccccc2[N+](=O)[O-])cc1 [p-[N-(3,4-dihydro-2-methyl-4-oxoquinazolin-6-ylmethyl)-N-(prop-2-ynyl)amino]-N-(2-nitrobenzyl)benzamide]			0.05	1.8	
C#CCN(Cc1ccc2nc(C)nc(O)c2c1)c1ccc(C(=O)NCc2ccccn2)cc1 [p-[N-(3,4-dihydro-2-methyl-4-oxoquinazolin-6-ylmethyl)-N-(prop-2-ynyl)amino]-N-(2-pyridylmethyl)benzamide]				3.9	0.5

Source: US5395838A, “6-substituted quinazolines processing anti-tumor activity” (Imperial Chemical Industries PLC, priority 1988, dated 1995)
